Four compounds from patent US10159668B2, “Pharmaceutical composition for inhibiting alpha-glucosidase” (Tamkang University, priority 2017, dated 2018) can be followed below.

Assay [1] has as its target rat α-glucosidase (Rat aG). Briefly: Test of IC50: inhibitive activity on rat α-glucosidase. The class given is biochemical. The following applies: Embodiment 2, Table 2, single components. The text has this: (§1) Testing and comparing the inhibitive activity Max % and IC50 of the composition and a known diabetes drug A (α-glucosidase inhibitor) to rat α-glucosidase (abbreviated as Rat aG) and yeast α-glucosidase (abbreviated as Yeast aG), individually. IC50 means the concentration of the inhibitor to achieve 50% inhibition rate.
(§2) The present embodiment tests IC50 of adenine, 3-hydroxy-dl-proline, nicotinic acid, (3,6-dioxo-piperazin-2-yl)-acetic acid amide, 2-ethylhexyl heptanoate, and the diabetes drug A to Rat aG and Yeast aG, individually.

In assay [2] the target is yeast α-glucosidase (Yeast aG). In kind it is biochemical. Conditions: Embodiment 2, Table 2, single components.
Source text: as §1, §2

Turning to `CCCCCCC(=O)OCC(CC)CCCC` (stereo not shown) [2-ethylhexyl heptanoate], in assay [1], the “Rat aGI (IC50 to Rat aG)” value amounted to 105 µg/mL. In assay [2], the “Yeast aGI (IC50 to Yeast aG)” value was determined as 4.0 µg/mL.

Turning to `O=C(O)c1cccnc1` [Nicotinic acid], in assay [1], the “Rat aGI (IC50 to Rat aG)” value was found to be 67 µg/mL. Also, the “Yeast aGI (IC50 to Yeast aG)” value in assay [2] was found to be 517 µg/mL.

For `Nc1ncnc2nc[nH]c12` [Adenine], the “Yeast aGI (IC50 to Yeast aG)” value in assay [2] worked out at 21.5 µg/mL.

For the compound `NC(=O)CC1NC(=O)CNC1=O` (stereo not shown) [(3,6-dioxo-piperazin-2-yl)-acetic acid amide], the “Rat aGI (IC50 to Rat aG)” value in assay [1] came out at 105 µg/mL. Also, the “Yeast aGI (IC50 to Yeast aG)” value in assay [2] stood at 4.0 µg/mL.
